Activity calls are given as the source filed them. No cut-off for these calls is given here. Where a SMILES comes first, the peptide text is derived from it. [ ]: non-standard residue; d: D form. The star is where a group is joined. Palmitoyl = CCCCCCCCCCCCCCCC(=O)*; βAla = NCCC(=O)O
Legend:
Assay type in all cases: functional, organism-based
[1] = tested on: Influenza A virus; experiment: Antiviral activity against oseltamivir-resistant Influenza A virus (H1N1) TJ/15
[2] = tested on: Influenza A virus; experiment: Antiviral activity against oseltamivir-resistant Influenza A virus (H1N1) LN/1109
[3] = tested on: Influenza A virus; experiment: Antiviral activity against oseltamivir-resistant Influenza A virus (H1N1) TJ/15 up to 100 uM

Work on `CCCCCCCCCCCCCCCC(=O)NCCCC[C@H](NC(=O)CCNC(=O)[C@H](CCCCN)NC(=O)[C@H](CCCCN)NC(=O)[C@H](CCC(N)=O)NC(=O)[C@@H](NC(=O)[C@H](CCC(=O)O)NC(=O)[C@H](CCC(=O)O)NC(=O)[C@@H](NC(=O)[C@H](CCCCN)NC(=O)[C@H](CCCCN)NC(=O)[C@H](CCC(N)=O)NC(=O)[C@@H](NC(=O)[C@H](CCC(=O)O)NC(=O)[C@H](CCC(=O)O)NC(=O)[C@@H](NC(=O)[C@H](CCCCN)NC(=O)[C@H](CCCCN)NC(=O)[C@H](CCC(N)=O)NC(=O)[C@@H](NC(=O)[C@H](CCC(=O)O)NC(=O)[C@H](CCC(=O)O)NC(=O)[C@@H](NC(=O)[C@H](CCCCN)NC(=O)[C@H](CCCCN)NC(=O)[C@H](CCC(N)=O)NC(=O)[C@@H](NC(=O)[C@H](CCC(=O)O)NC(=O)[C@H](CCC(=O)O)NC(=O)[C@@H](NC(=O)[C@H](CCCCN)NC(=O)[C@H](CCCCN)NC(=O)[C@H](CCC(N)=O)NC(=O)[C@@H](NC(=O)[C@H](CCC(=O)O)NC(=O)[C@H](CCC(=O)O)NC(=O)[C@@H](NC(C)=O)[C@@H](C)CC)[C@@H](C)CC)[C@@H](C)CC)[C@@H](C)CC)[C@@H](C)CC)[C@@H](C)CC)[C@@H](C)CC)[C@@H](C)CC)[C@@H](C)CC)[C@@H](C)CC)C(N)=O` (Ac-IEEIQKKIEEIQKKIEEIQKKIEEIQKKIEEIQKK[βAla]K(Palmitoyl)-NH2) yielded an EC50 [1] of 3.03 µM and an EC50 [2] of 4.36 µM.
For `CCOC(=O)C1=C[C@@H](OC(CC)CC)[C@H](NC(C)=O)[C@@H](N)C1` [OSELTAMIVIR], the inhibition [3] was “inactive” and the EC50 [2] was 21.7 µM.

— ChEMBL document CHEMBL4196194, “De Novo Design of α-Helical Lipopeptides Targeting Viral Fusion Proteins: A Promising Strategy for Relatively Broad-Spectrum Antiviral Drug Discovery” (J Med Chem, 2018)
